This note sets out measurements from the supplement of paper PMC11208160.
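Further: IS621 bridge recombinase in Escherichia coli cells against a fixed T5 target plasmid.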

The nature of the series: recombinant UMI read abundance after kanamycin selection (control-corrected) (log10(CPM+1)); higher = more efficient recombination; extreme values may be limits of the assay; sequences stand for … in AGTGCAGAGAAAATCGGCCAGTTTTCTCTGCCTGCAGTCCGCATGCCGTGGGACCCCTTGGGTTCTAACCTGTTGCCTAGATTTATGCAGCGGACTGCCTTTCTCCCAAAGTGATAAACCGG…AGGTTGGTTTCACT; site = the 11-nt donor. Summed up:
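Values, expressed as log10(CPM+1), derive from recombinant UMI counts converted to CPM, averaged across replicates and scaled by control-derived factors. Plating was with IPTG (0.07 mM) plus kanamycin or unselected, two replicates each. The screen pooled donor and donor-binding-loop pairs for the IS621 bridge recombinase in Escherichia coli.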
“CCCATCTCATGGACCGGTTTTCCCGGTAATCCGTATTTGTA (site CCCATCTCTTA)”: the “recombinant UMI read abundance (log10)” value was 1.97.
Under “CCCCACACATGGACCGGTTTTCCCGGTAATCCGTATTTGTC (site CCCCACACTAA)” stands 0.316; under “CCCCACACATGGACCGGTTTTCCCGGTAATCCGTATTTGTC (site CCCCACACTCA)”, 0.235; under “CCCCACACATGGACCGGTTTTCCCGGTAATCCGTATTTGTC (site CCCCACACTGA)”, 2.39.
For “CCCCACACATGGACCGGTTTTCCCGGTAATCCGTATTTGTC (site CCCCACACTTA)”, the “recombinant UMI read abundance (log10)” value was determined as 0.335.
Take “CCCCACACATGGACCGGTTTTCCCGGTAATCCGTATTTGTT (site CCCCACACTAA)”: the “recombinant UMI read abundance (log10)” value came out at 0.634.
Under “CCCCACACATGGACCGGTTTTCCCGGTAATCCGTATTTGTT (site CCCCACACTCA)” stands 0.35.
Consider “CCCCACACATGGACCGGTTTTCCCGGTAATCCGTATTTGTT (site CCCCACACTGA)”, for which the “recombinant UMI read abundance (log10)” value came out at 0.246.
Take “CCCCACACATGGACCGGTTTTCCCGGTAATCCGTATTTGTT (site CCCCACACTTA)”: the “recombinant UMI read abundance (log10)” value is 0.396.
Consider “CCCCGAGCATGGACCGGTTTTCCCGGTAATCCGTATTTGCA (site CCCCGAGCTTG)”, for which the “recombinant UMI read abundance (log10)” value came to 0.798.
In the case of “CCCCGCACATGGACCGGTTTTCCCGGTAATCCGTATTTGGA (site CCCCGCACTTC)”, the “recombinant UMI read abundance (log10)” value worked out at 0.0136.
Next, “CCCCTATCATGGACCGGTTTTCCCGGTAATCCGTATTTGTC (site CCCATATCTGA)”: 0; “CCCCTATCATGGACCGGTTTTCCCGGTAATCCGTATTTGTC (site CCCCTATCTGA)”: 1.82.
For “CCCCTATCATGGACCGGTTTTCCCGGTAATCCGTATTTGTC (site CCCGTATCTGA)”, the “recombinant UMI read abundance (log10)” value worked out at 0.
Consider “CCCCTATCATGGACCGGTTTTCCCGGTAATCCGTATTTGTC (site CCCTTATCTGA)”, for which the “recombinant UMI read abundance (log10)” value is 0.
With “CCCGACTCATGGACCGGTTTTCCCGGTAATCCGTATTTGAA (site CCCGACTCTTT)”, the “recombinant UMI read abundance (log10)” value came to 1.35.
On to “CCCGATCCATGGACCGGTTTTCCCGGTAATCCGTATTTGCA (site CCCGATCCTTG)”, for which the “recombinant UMI read abundance (log10)” value was 0.
As to “CCCGATCCATGGACCGGTTTTCCCGGTAATCCGTATTTGCA (site CCCGCTCCTTG)”, the “recombinant UMI read abundance (log10)” value was 0.
Turning to “CCCGATCCATGGACCGGTTTTCCCGGTAATCCGTATTTGCA (site CCCGGTCCTTG)”, the “recombinant UMI read abundance (log10)” value was 0.
With “CCCGATCCATGGACCGGTTTTCCCGGTAATCCGTATTTGCA (site CCCGTTCCTTG)”, the “recombinant UMI read abundance (log10)” value amounted to 0.
With “CCCGCTCCATGGACCGGTTTTCCCGGTAATCCGTATTTGCA (site CCCGATCCTTG)”, the “recombinant UMI read abundance (log10)” value came to 0.
In the case of “CCCGCTCCATGGACCGGTTTTCCCGGTAATCCGTATTTGCA (site CCCGCTCCTTG)”, the “recombinant UMI read abundance (log10)” value amounted to 0.
“CCCGCTCCATGGACCGGTTTTCCCGGTAATCCGTATTTGCA (site CCCGGTCCTTG)”: the “recombinant UMI read abundance (log10)” value turned out to be 0.
For the sequence “CCCGCTCCATGGACCGGTTTTCCCGGTAATCCGTATTTGCA (site CCCGTTCCTTG)”, the “recombinant UMI read abundance (log10)” value is 0.
Turning to “CCCGGACCATGGACCGGTTTTCCCGGTAATCCGTATTTGCA (site CCCGGACCTTG)”, the “recombinant UMI read abundance (log10)” value was 0.
For the sequence “CCCGGACCATGGACCGGTTTTCCCGGTAATCCGTATTTGCA (site CCCGGCCCTTG)”, the “recombinant UMI read abundance (log10)” value was determined as 0.
As to “CCCGGACCATGGACCGGTTTTCCCGGTAATCCGTATTTGCA (site CCCGGGCCTTG)”, the “recombinant UMI read abundance (log10)” value turned out to be 0.
Take “CCCGGACCATGGACCGGTTTTCCCGGTAATCCGTATTTGCA (site CCCGGTCCTTG)”: the “recombinant UMI read abundance (log10)” value came to 0.0045.
“CCCGGTCCATGGACCGGTTTTCCCGGTAATCCGTATTTGCG (site CCCGGTCCTAG)”: the “recombinant UMI read abundance (log10)” value worked out at 0.
Under “CCCGGTCCATGGACCGGTTTTCCCGGTAATCCGTATTTGCG (site CCCGGTCCTCG)” stands 0.
In the case of “CCCGGTCCATGGACCGGTTTTCCCGGTAATCCGTATTTGCG (site CCCGGTCCTGG)”, the “recombinant UMI read abundance (log10)” value was found to be 0.
As for “CCCGGTCCATGGACCGGTTTTCCCGGTAATCCGTATTTGCG (site CCCGGTCCTTG)”, the “recombinant UMI read abundance (log10)” value amounted to 0.
Turning to “CCCGGTCCATGGACCGGTTTTCCCGGTAATCCGTATTTGGA (site CCCGGTCCTTA)”, the “recombinant UMI read abundance (log10)” value was found to be 0.00376.
Next, “CCCGGTCCATGGACCGGTTTTCCCGGTAATCCGTATTTGGA (site CCCGGTCCTTC)”: 0.0256; “CCCGGTCCATGGACCGGTTTTCCCGGTAATCCGTATTTGGA (site CCCGGTCCTTG)”: 0; “CCCGGTCCATGGACCGGTTTTCCCGGTAATCCGTATTTGGA (site CCCGGTCCTTT)”: 0.0436.
Under “CCCGGTTCATGGACCGGTTTTCCCGGTAATCCGTATTTGCT (site CCCGGTTCTAG)” stands 0; under “CCCTATCCATGGACCGGTTTTCCCGGTAATCCGTATTTGCC (site CCCTAACCTGG)”, 0; under “CCCTATCCATGGACCGGTTTTCCCGGTAATCCGTATTTGCC (site CCCTACCCTGG)”, 0.
Take “CCCTATCCATGGACCGGTTTTCCCGGTAATCCGTATTTGCC (site CCCTAGCCTGG)”: the “recombinant UMI read abundance (log10)” value was 0.
With “CCCTATCCATGGACCGGTTTTCCCGGTAATCCGTATTTGCC (site CCCTATCCTGG)”, the “recombinant UMI read abundance (log10)” value stood at 0.417.
Under “CCCTGCTCATGGACCGGTTTTCCCGGTAATCCGTATTTGGG (site CCCTACTCTCC)” stands 0.174; under “CCCTGCTCATGGACCGGTTTTCCCGGTAATCCGTATTTGGG (site CCCTCCTCTCC)”, 0.027; under “CCCTGCTCATGGACCGGTTTTCCCGGTAATCCGTATTTGGG (site CCCTGCTCTCC)”, 0.409.
With “CCCTGCTCATGGACCGGTTTTCCCGGTAATCCGTATTTGGG (site CCCTTCTCTCC)”, the “recombinant UMI read abundance (log10)” value worked out at 0.018.
On to “CCCTGGCCATGGACCGGTTTTCCCGGTAATCCGTATTTGCC (site CCCTAGCCTGG)”, for which the “recombinant UMI read abundance (log10)” value is 0.
Under “CCCTGGCCATGGACCGGTTTTCCCGGTAATCCGTATTTGCC (site CCCTCGCCTGG)” stands 0; under “CCCTGGCCATGGACCGGTTTTCCCGGTAATCCGTATTTGCC (site CCCTGGCCTGG)”, 0; under “CCCTGGCCATGGACCGGTTTTCCCGGTAATCCGTATTTGCC (site CCCTTGCCTGG)”, 0.
Turning to “CCCTTCACATGGACCGGTTTTCCCGGTAATCCGTATTTGGG (site CCCTTCACTCC)”, the “recombinant UMI read abundance (log10)” value stood at 0.004.
Under “CCCTTCACATGGACCGGTTTTCCCGGTAATCCGTATTTGGG (site CCCTTCCCTCC)” stands 0.0128.
Next, “CCCTTCACATGGACCGGTTTTCCCGGTAATCCGTATTTGGG (site CCCTTCGCTCC)”: 0.0224.
On to “CCCTTCACATGGACCGGTTTTCCCGGTAATCCGTATTTGGG (site CCCTTCTCTCC)”, for which the “recombinant UMI read abundance (log10)” value amounted to 0.0124.
With “CCCTTCCCATGGACCGGTTTTCCCGGTAATCCGTATTTGGG (site CCCTTCACTCC)”, the “recombinant UMI read abundance (log10)” value worked out at 0.0226.
Consider “CCCTTCCCATGGACCGGTTTTCCCGGTAATCCGTATTTGGG (site CCCTTCCCTCC)”, for which the “recombinant UMI read abundance (log10)” value amounted to 0.00862.
For “CCCTTCCCATGGACCGGTTTTCCCGGTAATCCGTATTTGGG (site CCCTTCGCTCC)”, the “recombinant UMI read abundance (log10)” value was determined as 0.00355.
Under “CCCTTCCCATGGACCGGTTTTCCCGGTAATCCGTATTTGGG (site CCCTTCTCTCC)” stands 0.0121; under “CCCTTCTCATGGACCGGTTTTCCCGGTAATCCGTATTTGGC (site CCCTTCTCTAC)”, 0.0232.
As for “CCCTTCTCATGGACCGGTTTTCCCGGTAATCCGTATTTGGC (site CCCTTCTCTCC)”, the “recombinant UMI read abundance (log10)” value was 0.455.
Next, “CCCTTCTCATGGACCGGTTTTCCCGGTAATCCGTATTTGGC (site CCCTTCTCTGC)”: 1.71.
As for “CCCTTCTCATGGACCGGTTTTCCCGGTAATCCGTATTTGGC (site CCCTTCTCTTC)”, the “recombinant UMI read abundance (log10)” value was determined as 0.00807.
Next, “CCGAAGCCATGGACCGGTTTTCCCGGTAATCCGTATTTGTG (site CCGAAGCCTCA)”: 0.0182; “CCGAATCCATGGACCGGTTTTCCCGGTAATCCGTATTTGCT (site CCGAATCCTAG)”: 0.196; “CCGAATCCATGGACCGGTTTTCCCGGTAATCCGTATTTGCT (site CGGAATCCTAA)”: 0.
Next, “CCGAATTCATGGACCGGTTTTCCCGGTAATCCGTATTTGGG (site CCGAATTCTCC)”: 0; “CCGCACACATGGACCGGTTTTCCCGGTAATCCGTATTTGAA (site CCGCACACTTT)”: 0.931.
On to “CCGCATCCATGGACCGGTTTTCCCGGTAATCCGTATTTGGG (site CCGCATCCTCC)”, for which the “recombinant UMI read abundance (log10)” value was determined as 0.0031.
In the case of “CCGCCAACATGGACCGGTTTTCCCGGTAATCCGTATTTGAG (site CCGCCAACTCT)”, the “recombinant UMI read abundance (log10)” value was 0.356.
